This assay deals with T1, β-glucuronidase from P. purpurogenum Li-3 (PGUS).
T1 construct: native enzyme from mycelia of the fungus grown on GL; crude extract for kinetics, or ammonium sulfate and DEAE-cellulose
Description: HPLC of GAMG formed; double reciprocal plot. Conditions: control without ISL; crude β-glucuronidase solution, 2 h, 40 °C, sodium acetate buffer pH 5.0. It is filed as biochemical, Talaromyces purpureogenus. The text has this:
HPLC of GAMG formed; double reciprocal plot on β-glucuronidase from P. purpurogenum Li-3 (PGUS)

For `CC1(C)[C@@H](O[C@H]2O[C@H](C(=O)O)[C@@H](O)[C@H](O)[C@H]2O[C@@H]2O[C@H](C(=O)O)[C@@H](O)[C@H](O)[C@H]2O)CC[C@]2(C)[C@H]3C(=O)C=C4[C@@H]5C[C@@](C)(C(=O)O)CC[C@]5(C)CC[C@@]4(C)[C@]3(C)CC[C@@H]12` [GL, glycyrrhizin], the K m turned out to be 410 µM.

Source of the values: PMC5624897, “Identification of isoliquiritigenin as an activator that stimulates the enzymatic production of glycyrrhetinic acid monoglucuronide” (Scientific Reports, 2017).
